From patent publication US11858941B2, “Heterocyclic and heteroaryl compounds for treating Huntington's disease” (PTC THERAPEUTICS, INC., priority 2018, dated 2024)

The molecules below were run on Endogenous Huntingtin Protein (assay: Endogenous Huntingtin Protein Assay (Meso Scale Discovery ELISA-based electrochemiluminescence)). Settings: MSD plates coated with MW1 (expanded polyglutamine) or MAB2166 capture antibody; lysates.
Type: cell-based
Procedure: Compounds of Formula (I) were tested using the Meso Scale Discovery (MSD) Assay provided in International Application No. PCT/US2016/066042, filed on Dec. 11, 2016 and claiming priority to United States Provisional Application U.S. 62/265,652 filed on Dec. 10, 2015, the entire contents of which are incorporated herein by reference.
The Endogenous Huntingtin Protein assay used in Example 1 was developed using the ELISA-based MSD electrochemiluminescence assay platform.
Endogenous Huntingtin Protein Assay
Meso Scale Discovery (MSD) 96-well or 384-well plates were coated overnight at 4° C. with MW1 (expanded polyglutamine) or MAB2166 monoclonal antibody (for capture) at a concentration of 1 μg/mL in PBS (30 μL per well). Plates were then washed three times with 300 μL wash buffer (0.05% Tween-20 in PBS) and blocked (100 μL blocking buffer; 5% BSA in PBS) for 4-5 hours at room temperature with rotational shaking and then washed three times with wash buffer.
Samples (25 μL) were transferred to the antibody-coated MSD plate and incubated overnight at 4° C. After removal of the lysates, the plate was washed three times with wash buffer, and 25 μL of #5656S (Cell signaling; rabbit monoclonal) secondary antibody (diluted to 0.25 μg/mL in 0.05% Tween-20 in blocking buffer) was added to each well and incubated with shaking for 1 Hour at room temperature. Following incubation with the secondary antibody, the wells were rinsed with wash buffer after which 25 μL of goat anti-rabbit SULFO TAG secondary detection antibody (required aspect of the MSD system) (diluted to 0.25 μg/mL in 0.05% Tween-20 in blocking buffer) was added to each well and incubated with shaking for 1 hour at room temperature. After rinsing three times with wash buffer, 150 μL of read buffer T with surfactant (MSD) were added to each empty well, and the plate was imaged on a SI 6000 imager (MSD) according to manufacturers' instructions provided for 96- or 384-well plates.
With `CC1(C)CC(n2nnc3cc(-c4ccc(-c5ccncn5)cc4O)nnc32)CC(C)(C)N1` [Cpd 75, 5-(pyrimidin-4-yl)-2-[3-(2,2,6,6-tetramethylpiperidin-4-yl)-3H-[1,2,3]triazolo[4,5-c]pyridazin-6-yl]phenol] the IC50 was 100 to 500 nM.
For `Cn1nccc1-c1ccc(-c2cc3nnn(C4CC(C)(C)NC(C)(C)C4)c3nn2)c(O)c1` [Cpd 50, 5-(1-methyl-1H-pyrazol-5-yl)-2-[3-(2,2,6,6-tetramethylpiperidin-4-yl)-3H-[1,2,3]triazolo[4,5-c]pyridazin-6-yl]phenol], the IC50 was 100 to 500 nM.
`CC1(C)CC(n2nnc3cc(-c4ccc(-c5ccnc(OC(F)F)c5)cc4O)nnc32)CC(C)(C)N1` [Cpd 114, 5-[2-(difluoromethoxy)pyridin-4-yl]-2-[3-(2,2,6,6-tetramethylpiperidin-4-yl)-3H-[1,2,3]triazolo[4,5-c]pyridazin-6-yl]phenol] showed an IC50 of 1000 to 3000 nM.
For `CC1(C)CC(n2ncc3cc(-c4ccc(-c5ccncc5)cc4O)nnc32)CC(C)(C)N1` [Cpd 165, 5-(pyridin-4-yl)-2-[1-(2,2,6,6-tetramethylpiperidin-4-yl)-1H-pyrazolo[3,4-c]pyridazin-5-yl]phenol], the IC50 was ≤ 100 nM.
For `Cn1cnc2cc(-c3cc4nnn(C5CC(C)(C)NC(C)(C)C5)c4nn3)c(O)cc21` [Cpd 92, 1-methyl-5-[3-(2,2,6,6-tetramethylpiperidin-4-yl)-3H-[1,2,3]triazolo[4,5-c]pyridazin-6-yl]-1H-benzimidazol-6-ol], the IC50 was 1000 to 3000 nM.
Work on `CC1(C)CC(N2CCc3cc(-c4ccc(-c5cn[nH]c5)c(F)c4F)nnc32)CC(C)(C)N1` [Cpd 32, 3-[2,3-difluoro-4-(1H-pyrazol-4-yl)phenyl]-7-(2,2,6,6-tetramethylpiperidin-4-yl)-6,7-dihydro-5H-pyrrolo[2,3-c]pyridazine] yielded an IC50 of 100 to 500 nM.
For `CC1(C)CC(n2nnc3cc(-c4ccc(-c5cn[nH]c5)c(F)c4F)nnc32)CC(C)(C)N1` [Cpd 13, 6-[2,3-difluoro-4-(1H-pyrazol-4-yl)phenyl]-3-(2,2,6,6-tetramethylpiperidin-4-yl)-3H-[1,2,3]triazolo[4,5-c]pyridazine], the IC50 was 100 to 500 nM.
With `Cc1ncc(-c2ccc(-c3cc4nnn(C5CC(C)(C)NC(C)(C)C5)c4nn3)c(O)c2)s1` [Cpd 150, 5-(2-methyl-1,3-thiazol-5-yl)-2-[3-(2,2,6,6-tetramethylpiperidin-4-yl)-3H-[1,2,3]triazolo[4,5-c]pyridazin-6-yl]phenol] the IC50 was ≤ 100 nM.
For `CC1(C)CC(n2nnc3cc(-c4ccc(-c5cnccn5)cc4O)nnc32)CC(C)(C)N1` [Cpd 60, 5-(pyrazin-2-yl)-2-[3-(2,2,6,6-tetramethylpiperidin-4-yl)-3H-[1,2,3]triazolo[4,5-c]pyridazin-6-yl]phenol], the IC50 was 1000 to 3000 nM.
With `Oc1cc(-c2cn[nH]c2)ccc1-c1cc2scc(C3=CCNCC3)c2nn1` [Cpd 15, 5-(1H-pyrazol-4-yl)-2-[7-(1,2,3,6-tetrahydropyridin-4-yl)thieno[3,2-c]pyridazin-3-yl]phenol] the IC50 was 1000 to 3000 nM.
In the case of `Cc1nc(F)c(-c2ccc(-c3cc4nnn(C5CC(C)(C)NC(C)(C)C5)c4nn3)c(O)c2)s1` [Cpd 154, 5-(4-fluoro-2-methyl-1,3-thiazol-5-yl)-2-[3-(2,2,6,6-tetramethylpiperidin-4-yl)-3H-[1,2,3]triazolo[4,5-c]pyridazin-6-yl]phenol], the IC50 is reported as ≤ 100 nM.
`COc1n[nH]cc1-c1ccc(-c2cc3nnn(C4CC(C)(C)NC(C)(C)C4)c3nn2)c(O)c1` [Cpd 131, 5-(3-methoxy-1H-pyrazol-4-yl)-2-[3-(2,2,6,6-tetramethylpiperidin-4-yl)-3H-[1,2,3]triazolo[4,5-c]pyridazin-6-yl]phenol] was tested, and the IC50 was ≤ 100 nM.
Work on `CC1(C)CC(n2cnc3nc(-c4cc(F)c(-c5cn[nH]c5)cc4F)cnc32)CC(C)(C)N1` [Cpd 2, 5-[2,5-difluoro-4-(1H-pyrazol-4-yl)phenyl]-1-(2,2,6,6-tetramethylpiperidin-4-yl)-1H-imidazo[4,5-b]pyrazine] yielded an IC50 of 100 to 500 nM.
In the case of `CC1(C)CC(n2nnc3cc(-c4cc(O)c(-c5cn[nH]c5)cc4O)nnc32)CC(C)(C)N1` [Cpd 58, 2-(1H-pyrazol-4-yl)-5-[3-(2,2,6,6-tetramethylpiperidin-4-yl)-3H-[1,2,3]triazolo[4,5-c]pyridazin-6-yl]benzene-1,4-diol], the IC50 is reported as 100 to 500 nM.
In the case of `CC1(C)CC(n2nnc3cc(-c4ccc(-c5cc[nH]n5)cc4O)nnc32)CC(C)(C)N1` [Cpd 48, 5-(1H-pyrazol-3-yl)-2-[3-(2,2,6,6-tetramethylpiperidin-4-yl)-3H-[1,2,3]triazolo[4,5-c]pyridazin-6-yl]phenol], the IC50 is reported as 100 to 500 nM.
Molecule `CC1(C)CC(n2nnc3cc(-c4cc5c(cc4O)/C(=N/O)CC5)nnc32)CC(C)(C)N1` [Cpd 82, (3E)-3-(hydroxyimino)-6-[3-(2,2,6,6-tetramethylpiperidin-4-yl)-3H-[1,2,3]triazolo[4,5-c]pyridazin-6-yl]-2,3-dihydro-1H-inden-5-ol] has an IC50 of 100 to 500 nM.
In the case of `CCn1cc(-c2ccc(-c3cc4nnn(C5CC(C)(C)NC(C)(C)C5)c4nn3)c(O)c2)cn1` [Cpd 46, 5-(1-ethyl-1H-pyrazol-4-yl)-2-[3-(2,2,6,6-tetramethylpiperidin-4-yl)-3H-[1,2,3]triazolo[4,5-c]pyridazin-6-yl]phenol], the IC50 is reported as 500 to 1000 nM.
`CC1(C)CC(n2nnc3cc(-c4ccc(-c5cn[nH]c5)cc4O)nnc32)CC(C)(C)N1` [Cpd 7, 5-(1H-pyrazol-4-yl)-2-[3-(2,2,6,6-tetramethylpiperidin-4-yl)-3H-[1,2,3]triazolo[4,5-c]pyridazin-6-yl]phenol] was tested, and the IC50 was ≤ 100 nM.
For `CCOc1cc(-c2ccc(-c3cc4nnn(C5CC(C)(C)NC(C)(C)C5)c4nn3)c(O)c2)ccn1` [Cpd 123, 5-(2-ethoxypyridin-4-yl)-2-[3-(2,2,6,6-tetramethylpiperidin-4-yl)-3H-[1,2,3]triazolo[4,5-c]pyridazin-6-yl]phenol], the IC50 was 3000 to 9000 nM.
With `CC1(C)CC(n2nnc3cc(-c4ccc(-c5ccc(O)cn5)cc4O)nnc32)CC(C)(C)N1` [Cpd 67, 6-{3-hydroxy-4-[3-(2,2,6,6-tetramethylpiperidin-4-yl)-3H-[1,2,3]triazolo[4,5-c]pyridazin-6-yl]phenyl}pyridin-3-ol] the IC50 was ≤ 100 nM.
For `Cn1ccc(-c2ccc(-c3cc4cnn(C5CC(C)(C)NC(C)(C)C5)c4nn3)c(O)c2)n1` [Cpd 169, 5-(1-methyl-1H-pyrazol-3-yl)-2-[1-(2,2,6,6-tetramethylpiperidin-4-yl)-1H-pyrazolo[3,4-c]pyridazin-5-yl]phenol], the IC50 was ≤ 100 nM.
With `CC1(C)CC(n2nnc3cc(-c4ccc(-c5ccn6ncnc6c5)cc4O)nnc32)CC(C)(C)N1` [Cpd 126, 2-[3-(2,2,6,6-tetramethylpiperidin-4-yl)-3H-[1,2,3]triazolo[4,5-c]pyridazin-6-yl]-5-([1,2,4]triazolo[1,5-a]pyridin-7-yl)phenol] the IC50 was 100 to 500 nM.
Molecule `Oc1cc(-c2cn[nH]c2)ccc1-c1cnc2c(cnn2C2CCNCC2)n1` [Cpd 19, 2-[1-(piperidin-4-yl)-1H-pyrazolo[3,4-b]pyrazin-5-yl]-5-(1H-pyrazol-4-yl)phenol] has an IC50 of 1000 to 3000 nM.
`CC1(C)CC(n2nnc3cc(-c4cc(F)c(-c5ccncc5)cc4O)nnc32)CC(C)(C)N1` [Cpd 87, 4-fluoro-5-(pyridin-4-yl)-2-[3-(2,2,6,6-tetramethylpiperidin-4-yl)-3H-[1,2,3]triazolo[4,5-c]pyridazin-6-yl]phenol] showed an IC50 of 100 to 500 nM.
Work on `CCCn1cc(-c2ccc(-c3cc4nnn(C5CC(C)(C)NC(C)(C)C5)c4nn3)c(O)c2)cn1` [Cpd 47, 5-(1-propyl-1H-pyrazol-4-yl)-2-[3-(2,2,6,6-tetramethylpiperidin-4-yl)-3H-[1,2,3]triazolo[4,5-c]pyridazin-6-yl]phenol] yielded an IC50 of 1000 to 3000 nM.
Molecule `CC1(C)CC(n2nnc3cc(-c4ccc(-c5ncc[nH]5)cc4O)nnc32)CC(C)(C)N1` [Cpd 91, 5-(1H-imidazol-2-yl)-2-[3-(2,2,6,6-tetramethylpiperidin-4-yl)-3H-[1,2,3]triazolo[4,5-c]pyridazin-6-yl]phenol] has an IC50 of 1000 to 3000 nM.
`Oc1cc(-c2cn[nH]c2)ccc1-c1cc2[nH]cc(C3=CC4CCC(C3)N4)c2nn1` (stereo not drawn) [Cpd 27, 2-[7-(8-azabicyclo[3.2.1]oct-2-en-3-yl)-5H-pyrrolo[3,2-c]pyridazin-3-yl]-5-(1H-pyrazol-4-yl)phenol] was tested, and the IC50 was ≤ 100 nM.
Work on `Cn1cc(-c2ccc(-c3cc4nnn(C5CC(C)(C)NC(C)(C)C5)c4nn3)c(O)c2)c(C#N)n1` [Cpd 132, 4-{3-hydroxy-4-[3-(2,2,6,6-tetramethylpiperidin-4-yl)-3H-[1,2,3]triazolo[4,5-c]pyridazin-6-yl]phenyl}-1-methyl-1H-pyrazole-3-carbonitrile] yielded an IC50 of 500 to 1000 nM.
`CC1(C)CC(n2nnc3cc(-c4ccc(-c5ccc6nncn6n5)cc4O)nnc32)CC(C)(C)N1` [Cpd 152, 2-[3-(2,2,6,6-tetramethylpiperidin-4-yl)-3H-[1,2,3]triazolo[4,5-c]pyridazin-6-yl]-5-([1,2,4]triazolo[4,3-b]pyridazin-6-yl)phenol] gave an IC50 of 100 to 500 nM.
`CC1(C)CC(n2nnc3cc(-c4ccc(-n5ccnn5)cc4O)nnc32)CC(C)(C)N1` [Cpd 72, 2-[3-(2,2,6,6-tetramethylpiperidin-4-yl)-3H-[1,2,3]triazolo[4,5-c]pyridazin-6-yl]-5-(1H-1,2,3-triazol-1-yl)phenol] was tested, and the IC50 was 100 to 500 nM.
